This is an account of results in article PMC6017924, “Mycobacterium tuberculosis H37Rv LpqG Protein Peptides Can Inhibit Mycobacterial Entry through Specific Interactions” (Molecules : A Journal of Synthetic Chemistry and Natural …, 2018).

Series [1] concerns A549 cells. The format is cell-based. As to conditions: MTT, 20 and 200 µM peptide in PBS, 2 h, 5 × 10^4 cells/well; data not shown. On the procedure:
(§1) An MTT cell viability assay was used for evaluating LpqG peptides’ cytotoxic effect; it involved placing 5 × 10^4 cells/well for 2 h with 20 and 200 µM each peptide in PBS, using the afore-mentioned incubation conditions. Triton X-100 was used as cytotoxicity control; 10 µL MTT were then added for 12 h. The resulting formazan crystals were dissolved in SDS and absorbance read at 570 nm.

The test system of series [2] is U937 cells. The class given is cell-based. Conditions: MTT, 20 and 200 µM peptide in PBS, 2 h, 5 × 10^4 cells/well; data not shown. On the procedure: as §1

Where no end group is shown, it is not given here.

On to SGCDSHNSGSLGADPRQVTVY [compound 16661], for which the “cytotoxicity on A549 cells” value in series [1] worked out at 4%. In addition, the “cytotoxic effect on U937 cells” value in series [2] is given as “without having a cytotoxic effect”.
